# According to US20050256301A1 (The University of Queensland, priority 1998, published 2005):
# Bridge positions count the residues as written; N and C are the ends. Ends that are not written are not given here. Peptide text beside a SMILES is read from it.
# Legend:
# [1] = molecular target: endoproteinase Glu-C (Endo Glu-C) (Staphylococcus aureus, UniProt P0C1U8); settings: 24 h, pH 8
# [2] = test system: bovine adrenal chromaffin cells; assay type: cell-based
# [3] = in vitro; settings: human, plasma
# Chain of endoproteinase Glu-C (Endo Glu-C) (P0C1U8 69-336 limits assumed): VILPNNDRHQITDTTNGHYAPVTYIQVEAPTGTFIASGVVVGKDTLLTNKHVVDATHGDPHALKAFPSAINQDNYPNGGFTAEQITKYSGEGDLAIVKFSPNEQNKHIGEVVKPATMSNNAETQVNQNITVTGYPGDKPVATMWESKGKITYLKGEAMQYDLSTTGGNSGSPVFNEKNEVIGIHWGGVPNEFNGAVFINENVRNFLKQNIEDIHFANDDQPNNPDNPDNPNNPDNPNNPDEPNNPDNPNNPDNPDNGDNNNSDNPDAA
Molecule,intact peptide remaining with Endo Glu-C [1],"inhibition of nicotine-evoked catecholamine release, activity relative to linear MII [2]",remaining at 24 h [3]
"CC(C)C[C@@H]1NC(=O)[C@H](CC(N)=O)NC(=O)[C@H](CO)NC(=O)[C@H](Cc2c[nH]cn2)NC(=O)[C@H](CCC(=O)O)NC(=O)[C@H](CC(C)C)NC(=O)[C@H](Cc2c[nH]cn2)NC(=O)[C@@H]2CSSC[C@@H]3NC(=O)CNC(=O)CNC(=O)CNC(=O)[C@H](C)NC(=O)[C@H](C)NC(=O)CNC(=O)CNC(=O)[C@H](CSSC[C@H](NC3=O)C(=O)N[C@@H](CO)C(=O)N[C@@H](CC(N)=O)C(=O)N3CCC[C@H]3C(=O)N[C@@H](C(C)C)C(=O)N2)NC1=O [cMII-6] (cyclo(AAGGGCCSNPVCHLEHSNLCGG); disulfide 6-12, 7-20)",remains entirely intact,comparable to linear MII,~90%
"CC(C)C[C@@H]1NC(=O)[C@H](CC(N)=O)NC(=O)[C@H](CO)NC(=O)[C@H](Cc2c[nH]cn2)NC(=O)[C@H](CCC(=O)O)NC(=O)[C@H](CC(C)C)NC(=O)[C@H](Cc2c[nH]cn2)NC(=O)[C@@H]2CSSC[C@@H]3NC(=O)CNC(=O)CNC(=O)[C@H](C)NC(=O)[C@H](C)NC(=O)CNC(=O)[C@H](C)NC(=O)CNC(=O)CNC(=O)[C@H](CSSC[C@H](NC3=O)C(=O)N[C@@H](CO)C(=O)N[C@@H](CC(N)=O)C(=O)N3CCC[C@H]3C(=O)N[C@@H](C(C)C)C(=O)N2)NC1=O [cMII-7, Gly Cys Cys Ser Asn Pro Val Cys His Leu GIu His Ser Asn Leu Cys Gly Gly Ala Gly Ala Ala Gly] (cyclo(AAGGCCSNPVCHLEHSNLCGGAG); disulfide 5-11, 6-19)",,comparable to linear MII,~90%
"Gly Cys Cys Ser Asn Pro Val Cys His Leu Glu His Ser Asn Leu Cys Gly Gly Ala Ala Gly (GCCSNPVCHLEHSNLCGGAAG; also: cyclic, ring type and places not given here) [cMII-5, cyclic MII with five residue linker GGAAG]",,comparable to linear MII,
